Data: publication PMC7595202, “Indole hydrazide compound ZJQ-24 inhibits angiogenesis and induces apoptosis cell death through abrogation of AKT/mTOR pathway in hepatocellular carcinoma” (Cell Death & Disease, 2020)

Biological target: mTOR (Homo sapiens, UniProt P42345)
Assay: in vitro kinase activity assay at ATP near Km; also anti-Raptor immunoprecipitated mTORC1 kinase assay (HepG2/HUH-7) with GST-S6K1 substrate
Type: biochemical

Work on `COc1ccc(C=NNC(=O)c2cc3cc(Cl)ccc3[nH]2)c(OC)c1` [ZJQ-24, 5-chloro-N’-(2,4-dimethoxybenzylidene)−1H-indole-2-carbohydrazide] yielded an EC50 of 40.6 µM.
